# Where a SMILES comes first, the peptide text is derived from it.
# Experiments:
# [1] = biological target: T1, α-syn (Homo sapiens, UniProt P37840); assay: TEM of α-syn aggregates formed with peptides; format: biochemical; conditions: for Morphology (TEM): α-syn aggregates after incubation with peptide, versus α-syn alone; for Morphology of α-syn aggregates (TEM), in words: α-syn incubated in the presence of peptide
# T1 construct: made in house; host or cells: Escherichia coli BL21 (DE3), plasmid pET11-D
# Method: Five microliters of each fibril-containing solution were applied to 400-mesh carbon-coated and glow-discharged nickel grids for 30 s, and blotted with filter paper to remove excess sample. The grids were washed with one drop of double distilled water and then stained with 3 μl of 1% uranyl formate for 15 s. Excess stain was removed by blotting paper This step was repeated two more times. Finally, the grids were left to air dry and viewed on a Tecnai G2 Spirit (FEI Company) operating at 60 kV, and images were taken using a TemCam F416 camera (TVIPS).
# [2] = Calcein release assay, substance alone; conditions: for Peptide concentration from which membrane toxicity is shown: peptide alone, calcein-filled DOPG LUVs, tested range 10^−1–10^−6 mg/ml
# Method: (§1) αSOs show cytotoxic properties, which have been attributed to their membrane-disrupting ability ([69]). To examine the effect of peptides on membrane permeabilization by αSOs, we used a simple calcein release assay. αSOs, peptides, and aSO–peptide mixtures at 10^−6 to 10^−1 mg/ml peptide were added to calcein-loaded DOPG vesicle, and the extent of calcein release was monitored for 30 min by the increase in fluorescence as calcein leaks out upon membrane permeabilization, leading to dilution and the loss of self-quenching. The time-dependent calcein release data from DOPG vesicles ([70], [71]) in the presence of peptides, αSOs, and αSO–peptides are shown in Figs. S9 and S10. In order to allow easy comparison of all peptides, the calcein release versus concentration (peptides and αSOs) were plotted at the plateau point of release (Fig. 5, A–C). […] Figure 5D compares calcein release percentages of data represented in Figure 5, A and B at peptide concentrations between 0.001 and 0.1 mg/ml, where we see the largest extent of calcein release in general.
# (§2) Calcein-filled vesicles of DOPG were prepared as described before ([38]). Briefly, DOPG was dissolved in PBS to […], in the presence of calcein at self-quenching concentrations (70 mM) and subjected to 10 freeze–thaw cycles between liquid nitrogen and a 50 °C water bath. After 21 times extrusion through a 100 nm filter, free calcein was separated from vesicles with a PD-10 desalting column (GE Healthcare). Vesicles were stored at 4 °C and used for calcein release assays within 24 h.
# (§3) Calcein release was measured by mixing peptides and/or αSOs at a final concentration of 10^−6 to 10^−1 mg/ml and 5.2 μg/ml, respectively, in 148 μl with 2 μl of calcein vesicles, and were then loaded onto a 96-well plate (Nunc, Thermo Fischer Scientific) in triplicate. The plate was sealed with Crystal clear sealing tape (Hampton Research), and fluorescence was measured (excitation: 485 nm and emission: 520 nm) for 1 h at 37 °C every 2 min with a 2 s autoshake before each reading on a fluorescence plate reader (Tecan). Finally, 2 μl Triton X-100 (0.2% [v/v]) was added to lyse vesicles, and the maximal fluorescence signal was measured for 20 min under the same reading condition. Background fluorescence was subtracted, and the average signal of calcein release before addition of Triton X-100 (F), after treatment with Triton X-100 (Ft) and for the buffer control (F0) were determined, and calcein release percentage was calculated as follow (Equation 1):(1) CalceinRelease%(CR%)=(F−F0)/(Ft−F0)
# [3] = biological target: T2, αSOs (Homo sapiens, UniProt P37840); assay: Calcein release assay, αSOs together with peptides; format: biochemical; conditions: for Effect on vesicle permeabilization by αSOs: αSOs at calcein^50% (5.2 μg/ml)
# T2 construct: made in house; host or cells: Escherichia coli BL21 (DE3); oligomers formed by shaking the monomer and isolated by SEC (Superose 6)
# Method: as §1, §2, §3
# [4] = system: SH-SY5Y cells; conditions: αSOs with peptide, MTT
# Method: The effect of the peptides on αSOs toxicity in SH-SY5Y cells using 3-(4, 5-dimethylthiazol-2-yl)-2,5-diphenyltetrazolium bromide (MTT) cell viability assay was also tested to complement our calcein data.
# We used the MTT assay to measure cell viability after 24 h treatment with αSOs in the presence of peptides. SH-SY5Y cells were seeded in 96-well plates at a density of 5 × 10^4 cell/ml in Dulbecco's modified Eagle's medium supplemented with 10% FBS, 100 unit/ml penicillin, and […]. The cells were incubated in a humidified atmosphere incubator with 5% CO2 and 95% humidity at 37 °C for 24 h. The culture medium was then replaced with fresh medium containing 10 μM αSOs with peptides and incubated for another 24 h. Then the cell medium was replaced with a fresh medium containing 20% MTT (5 mg/ml), and the cells were incubated for an additional 4 h at 37 °C. Then 100 μl of dimethyl sulfoxide was added to dissolve formazan crystals by incubating for 30 min on a shaker at RT. Consequently, absorbance was measured by using a plate reader at 570 nm.
# [5] = ThT monitoring of peptides alone for self-fibrillation; format: physicochemical; conditions: peptide alone (controls 1 mg/mL), 37 °C with shaking
# Method: To test the effects of these selected nine peptides on the aggregation of α-syn, we performed a thioflavin T (ThT) fluorescence assay in the presence of 1 mg/ml α-syn and 0 to 0.5 mg/ml peptide for 48 h (raw data in Fig. S3). Furthermore, the peptides alone were monitored for self-fibrillation. […] High concentrations of p222, p194, and p249 led to a decline in ThT fluorescence after reaching a plateau, possibly because of the formation of insoluble amorphous species. We also carried out seeding experiments by adding 5% sonicated preaggregated α-syn fibrils to the ThT assay.
# About 150 μl of 70 μM (1 mg/ml) α-syn, 40 μM ThT, and varying amounts of peptides (0, 0.06, 0.125, 0. 25, 0.375, and 0.5 mg/ml) were transferred in triplicates to a black COSTAR 96-well clear bottom plate (Nunc, Thermo Fisher Scientific), and including a 3 mm diameter glass bead (Glaswarenfabrik Karl Hecht GmbH & Co KG) per well to increase reproducibility ([100]). The plate was sealed with Crystal Clear sealing tape (Hampton Research) and incubated at 37 °C in a CLARIOstar Plus (BMG LABTECH) fluorescence plate reader. Fibrillation was carried out for ∼48 h with 300 rpm double orbital shaking between the readings for 372 s (excitation/emission: 448∕485 nm). […]
# [picture] […] The effect of the 9 peptides on α-syn fibrillation monitored by ThT fluorescence. […]
Compound,Morphology (TEM) [1],"Morphology of α-syn aggregates (TEM), in words [1]","Permeabilization of lipid vesicles by peptide alone ([2]; calcein-loaded DOPG vesicles, 10^−6 to 10^−1 mg/ml peptide, 37 °C, triplicate)",Effect on vesicle permeabilization by αSOs ([3]; peptide 10^−6 to 10^−1 mg/ml),Peptide concentration from which membrane toxicity is shown [2],"Effect on cell survival in the presence of toxic αSOs, in words [4]","Reduction of αSO-induced membrane permeability ([3]; calcein-filled DOPG LUVs, peptide concentration not stated at the place) [%]",Self-fibrillation of the peptide alone [5],Effect on vesicle permeabilization by αSOs ([3]; peptide 0.01 and 0.1 mg/ml)
CC(C)C[C@H](NC(=O)[C@H](Cc1c[nH]cn1)NC(=O)[C@H](CO)NC(=O)[C@H](CO)NC(=O)[C@H](C)NC(=O)[C@@H](N)CO)C(=O)N[C@@H](Cc1c[nH]cn1)C(=O)N[C@@H](Cc1c[nH]cn1)C(=O)NCC(=O)N[C@@H](Cc1c[nH]cn1)C(=O)N[C@@H](CO)C(=O)NCC(=O)NCC(=O)O [p168] (H-SASSHLHHGHSGG-OH),"L, T, I",longer and thinner fibrils,did not permeabilize lipid vesicles,failed to affect vesicle permeabilization by αSOs,,,,,
CC[C@H](C)[C@H](NC(=O)[C@H](Cc1c[nH]c2ccccc12)NC(=O)[C@H](CCCNC(=N)N)NC(=O)[C@H](Cc1c[nH]c2ccccc12)NC(=O)[C@H](CCCCN)NC(=O)[C@@H](NC(=O)[C@H](CCCCN)NC(=O)[C@H](CCC(N)=O)NC(=O)[C@@H](N)CC(N)=O)[C@@H](C)CC)C(=O)N[C@@H](CCC(N)=O)C(=O)N[C@@H](CCCNC(=N)N)C(=O)N[C@@H](Cc1ccccc1)C(=O)N[C@@H](CCCNC(=N)N)C(=O)N[C@@H](CCCCN)C(=O)N[C@@H](CCCCN)C(=O)N[C@@H](CCSC)C(=O)O [p235] (H-NQKIKWRWIQRFRKKM-OH; N-terminus and C-terminus assumed),,nonfibrillar (amorphous) accumulations,,,> 10^−2 mg/ml,did not show positive effects,,,
CC[C@H](C)[C@H](NC(=O)[C@H](Cc1ccccc1)NC(=O)[C@H](Cc1c[nH]c2ccccc12)NC(=O)[C@H](CCCNC(=N)N)NC(=O)[C@H](CC(N)=O)NC(=O)[C@@H](NC(=O)[C@H](CCC(N)=O)NC(=O)[C@H](CCCCN)NC(=O)[C@@H](N)CCSC)[C@@H](C)CC)C(=O)N[C@@H](CCCNC(=N)N)C(=O)N[C@@H](Cc1c[nH]c2ccccc12)C(=O)N[C@@H](CCC(N)=O)C(=O)N[C@@H](CCCCN)C(=O)N[C@@H](CCCCN)C(=O)N[C@@H](CCCNC(=N)N)C(=O)N[C@@H](CCCCN)C(=O)O [p249] (H-MKQINRWFIRWQKKRK-OH; N-terminus and C-terminus assumed),,nonfibrillar (amorphous) accumulations,,,> 10^−2 mg/ml,did not show positive effects,62,,
"RQIKIWFQNRRFKWKK [p222, penetratin with modulated hydrophobicity]","S, N",needle-shaped and short fibrils,,,> 10^−4 mg/ml,,,slight self-fibrillation tendencies,increased vesicle permeabilization by αSOs
